Structures are written as SMILES. The source made the active and inactive calls. How the calls were made is not given here.

Signal transducer and activator of transcription 1-alpha/beta (Homo sapiens), sequence (P42224 whole entry, looked up): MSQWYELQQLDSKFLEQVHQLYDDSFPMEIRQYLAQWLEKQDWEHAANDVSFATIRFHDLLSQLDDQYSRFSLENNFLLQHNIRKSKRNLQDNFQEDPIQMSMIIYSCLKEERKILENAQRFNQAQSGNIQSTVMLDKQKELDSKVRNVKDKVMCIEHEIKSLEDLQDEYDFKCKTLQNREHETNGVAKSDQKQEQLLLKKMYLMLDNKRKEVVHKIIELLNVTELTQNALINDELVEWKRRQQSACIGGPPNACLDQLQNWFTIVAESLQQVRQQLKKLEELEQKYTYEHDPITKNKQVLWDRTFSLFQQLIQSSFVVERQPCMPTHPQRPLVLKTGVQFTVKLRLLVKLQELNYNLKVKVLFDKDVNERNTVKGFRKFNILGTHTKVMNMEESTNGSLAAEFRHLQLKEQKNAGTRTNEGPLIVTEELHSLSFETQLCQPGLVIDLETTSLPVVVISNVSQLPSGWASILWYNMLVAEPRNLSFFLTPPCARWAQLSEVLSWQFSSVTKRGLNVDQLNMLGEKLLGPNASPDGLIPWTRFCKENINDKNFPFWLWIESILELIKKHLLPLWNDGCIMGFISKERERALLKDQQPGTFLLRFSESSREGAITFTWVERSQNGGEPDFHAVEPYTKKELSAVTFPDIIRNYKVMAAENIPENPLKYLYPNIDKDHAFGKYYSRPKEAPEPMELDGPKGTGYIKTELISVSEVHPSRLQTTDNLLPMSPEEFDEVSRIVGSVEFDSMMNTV

This assay addresses Signal transducer and activator of transcription 1-alpha/beta (Homo sapiens) (UniProt P42224). Description: inhibition of STAT1-driven luciferase signal – cell-based, luminescence, NIH 3T3, dose response, late-stage follow-up (AID 2772). The following applies: NIH 3T3 fibroblasts, STAT1 luciferase reporter. On the technique in general: In a reporter assay the amount or activity of a reporter protein is the signal.
As to `CC(C(=O)Nc1ccccc1)N1CCN(S(=O)(=O)c2ccccc2)CC1` (centres undefined), the IC50 – broadly, the midpoint of a concentration-inhibition curve – was > 55.7 µM (inactive).
In the case of `NC(=O)c1ccc(S(=O)(=O)N2CCN(C(C(=O)Nc3ccc(F)cc3)c3ccccc3)CC2)cc1` (centres undefined), the IC50 is > 55.7 µM (inactive).
The value for `O=C1c2ccccc2N/C(=C\N2CCOCC2)N1Cc1nc(-c2ccccc2F)cs1` was “inactive”.
`CN(C)Cc1nc2ccccc2c(=O)n1Cc1nc(C(C)(C)C)cs1`: the IC50 entry was “inactive”.
Consider `Cc1ccc(-n2nc(C(=O)O)c3ccccc3c2=O)cc1C`, for which the IC50 was > 55.7 µM (inactive).
`CCC(C)c1ccc(-c2csc(CN3C(=O)c4ccccc4N/C3=C\N3CCN(C)CC3)n2)cc1` (centres undefined): the IC50 was > 18.6 µM (inactive).
The value for `Cc1ccc(C)c(NC(=O)C(c2ccccc2)N2CCN(S(=O)(=O)c3ccccc3C#N)CC2)c1` (centres undefined) was > 55.7 µM (inactive); that for `Cc1cc2oc(=O)cc(CSc3nc4ccccc4c(=O)[nH]3)c2cc1Cl` was > 55.7 µM (inactive).
As for `CNC(=O)c1nn(-c2ccc(F)cc2)c(=O)c2ccccc12`, the IC50 is > 55.7 µM (inactive).
As for `COc1cc2c(cc1OC)C(=O)N(Cc1nnc(-c3ccc(Cl)cc3)o1)C(=CN1CCOCC1)N2`, the figure is > 55.7 µM (inactive); as for `O=c1c2ccccc2nc(CN2CCOCC2)n1Cc1nc(-c2ccc[nH]2)cs1`, “inactive”.
The value for `CCOc1ccccc1NC(=O)C(c1ccccc1)N1CCN(S(=O)(=O)c2ccc(F)c(F)c2F)CC1` (centres undefined) was > 55.7 µM (inactive); that for `O=C(c1ccc(-n2c(=S)[nH]c3ccccc3c2=O)cc1)N1CCN(c2ccc(F)cc2)CC1` was > 55.7 µM (inactive); that for `O=C(Nc1ccc(F)cc1)C(c1ccccc1)N1CCN(S(=O)(=O)c2ccc3c(c2)OCCO3)CC1` (centres undefined) was > 55.7 µM (inactive).
As for `CC(=O)c1ccc(S(=O)(=O)N2CCN(C(C(=O)Nc3ccc(C)cc3)c3ccccc3)CC2)cc1` (centres undefined), the figure is > 55.7 µM (inactive); as for `O=C(Nc1ccc(F)cc1)C(c1ccccc1)N1CCN(C(=O)c2ccccc2)CC1` (centres undefined), > 55.7 µM (inactive).
In the case of `COc1cc2c(cc1OC)C(=O)N(Cc1coc(-c3ccccc3)n1)C(=CN1CCOCC1)N2`, the IC50 is > 55.7 µM (inactive).
As for `CN1CCN(C(=O)c2ccc(-n3c(=S)[nH]c4ccccc4c3=O)cc2)CC1`, the figure is > 55.7 µM (inactive); as for `Cc1ccc(-n2nc(C(=O)O)c3ccccc3c2=O)cc1Cl`, “inactive”; as for `CN1CCN(C=C2Nc3ccccc3C(=O)N2Cc2nc(C34CC5CC(CC(C5)C3)C4)cs2)CC1`, > 55.7 µM (inactive).
As for `COc1cc2c(cc1OC)C(=O)N(Cc1cc(-c3ccccc3OC)no1)C(=CN1CCOCC1)N2`, the figure is > 55.7 µM (inactive).
`CCOc1ccc(-c2csc(Cn3c(CN4CCN(C)CC4)nc4ccccc4c3=O)n2)cc1`: the IC50 is > 18.6 µM (inactive).
As for `O=c1cc(CSc2nc3ccccc3c(=O)[nH]2)c2ccc(O)cc2o1`, the IC50 result is “inactive”.
As to `CCC(C(=O)Nc1ccccc1)N1CCN(S(=O)(=O)c2ccc3c(c2)CCC3)CC1` (centres undefined), the IC50 is > 55.7 µM (inactive).
The value for `COc1ccc(C)cc1NC(=O)C(c1ccccc1)N1CCN(S(=O)(=O)c2ccc(F)cc2)CC1` (centres undefined) was > 55.7 µM (inactive); that for `N#Cc1ccc(S(=O)(=O)N2CCN(C(C(=O)Nc3ccc(F)cc3)c3ccccc3)CC2)cc1` (centres undefined) was > 55.7 µM (inactive); that for `CCOC(=O)N1CCN(C(=O)c2ccc(-n3c(=S)[nH]c4ccccc4c3=O)cc2)CC1` was “inactive”.
As for `CCOC(=O)c1ccc(S(=O)(=O)N2CCN(C(C(=O)Nc3ccc(OC)c(Cl)c3)c3ccccc3)CC2)cc1` (centres undefined), the figure is > 55.7 µM (inactive); as for `O=C1c2ccccc2N/C(=C\N2CCOCC2)N1Cc1nc(-c2ccc(F)c(F)c2)cs1`, “inactive”; as for `O=C(c1ccc(-n2c(=S)[nH]c3ccccc3c2=O)cc1)N1CCN(C(=O)c2ccco2)CC1`, > 55.7 µM (inactive).
As for `O=C(Nc1ccc(F)cc1)C(c1ccccc1)N1CCN(S(=O)(=O)c2ccc3ccccc3c2)CC1` (centres undefined), the figure is > 55.7 µM (inactive); as for `O=C(Nc1ccc(F)cc1)C(c1ccccc1)N1CCN(S(=O)(=O)c2ccccc2)CC1` (centres undefined), > 55.7 µM (inactive); as for `CN(C)Cc1nc2ccccc2c(=O)n1Cc1nc(-c2cccc([N+](=O)[O-])c2)cs1`, > 18.6 µM (inactive).
Regarding `CN1CCN(Cc2nc3ccccc3c(=O)n2Cc2nc(-c3cccc([N+](=O)[O-])c3)cs2)CC1`, the IC50 result was “inactive”.
As for `CCOc1ccc2oc(=O)cc(CSc3nc4ccccc4c(=O)[nH]3)c2c1`, the figure is > 55.7 µM (inactive); as for `COC(=O)c1nn(-c2ccc(F)cc2)c(=O)c2ccccc12`, > 55.7 µM (inactive).
As for `O=C(OCC1CCCCC1)c1nn(-c2ccccc2)c(=O)c2ccccc12`, the figure is > 55.7 µM (inactive); as for `COc1ccc(N2CCN(C(=O)c3ccc(-n4c(=S)[nH]c5ccccc5c4=O)cc3)CC2)cc1`, > 55.7 µM (inactive).
As for `CN1CCN(Cc2nc3ccccc3c(=O)n2Cc2nc(-c3ccccc3F)cs2)CC1`, the entry is “inactive”; as for `C=C1NN(c2ccc(C(=O)N3CCC(Cc4ccccc4)CC3)cc2)C(=O)c2ccccc21`, > 55.7 µM (inactive).
For `CN(C)C(=O)c1nn(-c2ccc(F)cc2)c(=O)c2ccccc12`, the IC50 was > 55.7 µM (inactive).
As for `O=C(O)c1nn(-c2ccc(F)cc2)c(=O)c2ccccc12`, the figure is > 55.7 µM (inactive); as for `CC(C(=O)Nc1ccc(F)c(F)c1)N1CCN(S(=O)(=O)c2ccc(C(F)(F)F)cc2)CC1` (centres undefined), > 55.7 µM (inactive).
As for `CCOC(=O)Nc1ccc2c(CSc3nc4ccccc4c(=O)[nH]3)cc(=O)oc2c1`, the figure is > 55.7 µM (inactive).
The value for `CN(Cc1ccccc1N1CCCC1)C(=O)c1nn(-c2ccccc2)c(=O)c2ccccc12` was > 55.7 µM (inactive).
Take `COc1cccc(-c2csc(Cn3c(CN4CCOCC4)nc4ccccc4c3=O)n2)c1`: the IC50 result was “inactive”.
The value for `O=C(c1ccc(-n2c(=S)[nH]c3ccccc3c2=O)cc1)N1CCN(C2CCCCC2)CC1` was > 55.7 µM (inactive); that for `Cc1ccc(NC(=O)C(c2ccccc2)N2CCN(S(=O)(=O)c3ccccc3)CC2)cc1` (centres undefined) was > 55.7 µM (inactive).
In the case of `COc1cccc(NC(=O)C(c2ccccc2)N2CCN(S(=O)(=O)c3ccc(C)cc3)CC2)c1` (centres undefined), the IC50 entry is “inactive”.
The value for `N#Cc1ccccc1S(=O)(=O)N1CCN(C(C(=O)Nc2ccc(F)cc2)c2ccccc2)CC1` (centres undefined) was > 55.7 µM (inactive); that for `O=C(c1ccc(-n2c(=S)[nH]c3ccccc3c2=O)cc1)N1CCN(c2ccccc2)CC1` was > 55.7 µM (inactive).
As for `O=C(Nc1ccc(Cl)c(C(F)(F)F)c1)C(c1ccccc1)N1CCN(S(=O)(=O)c2ccccc2)CC1` (centres undefined), the IC50 was > 55.7 µM (inactive).
For `Cc1ccc(C)c(S(=O)(=O)N2CCN(C(C(=O)Nc3ccc(F)cc3)c3ccccc3)CC2)c1` (centres undefined), the IC50 was > 55.7 µM (inactive).
As for `Cc1ccc2oc(=O)cc(CSc3nc(-c4ccccc4)c4ccccc4n3)c2c1`, the figure is > 55.7 µM (inactive).
